Reference: EP0164699A2, “1,2-Beta-methylene-4-androstene and 4,6-androstadiene-3,17-dione” (SCHERING AKTIENGESELLSCHAFT, priority 1984, dated 1985)

Tested on: Aromatase
Assay: Aromatase inhibition: reduction of PMSG-stimulated estradiol secretion in rats (serum estradiol by radioimmunoassay)
Assay type: in vivo, Ratten
Conditions: serum of 20-day-old female rats pretreated 7 times with 100 I.U. PMSG s.c.; test substance injected 1 h before and 8 h after last PMSG; killed 24 h after last PMSG; comparison with substance A
From the text: Die durch PMSG (Pregnant Mare's Serum Gonadotropin) vermehrte Sekretion von Östradiol kann durch Applikation von Aromatasehemmern vermindert werden.
Versuch und Auswertung wurden wie folgt durchgeführt: • 20 Tage alte weibliche Ratten wurden alle 2 Tage insgesamt 7 mal mit 100 I.U. PMSG subcutan vorbehandelt. Eine Stunde vor und 8 Stunden nach der letzten PMSG-Applikation (d12) erhielten die Tiere die Testsubstanz durch Injektion. 24 Stunden nach der letzten PMSG-Applikation wurden die Tiere getötet. Im Serum wurde dann Östradiol radioimmunologisch bestimmt. In der folgenden Tabelle wird die Östradiolkonzentration in nMol/1 und die Standardabweichung angegeben. [formula]

| SMILES | Östradiolkonzentration |
| --- | --- |
| C[C@]12CC[C@H]3[C@@H](CCC4=CC(=O)[C@H]5CC5[C@@]43C)[C@@H]1CCC2=O (some centres unmarked) [B, 1,2ß-Methylen-4-androsten-3,17-dion] | einen stärkeren Abfall der Östradiolkonzentration bewirken als die bekannte Substanz A |
| C[C@]12CC[C@H]3[C@@H](C=CC4=CC(=O)[C@H]5CC5[C@@]43C)[C@@H]1CCC2=O (some centres unmarked) [C, 1,2ß-Methylen-androsta-4,6-dien-3,17-dion] | einen stärkeren Abfall der Östradiolkonzentration bewirken als die bekannte Substanz A |
